Reference: patent publication US20240116985A1, “STAPLED PEPTIDES AND METHODS THEREOF” (priority 2020, published 2024)
pIC50: −log10 of the molar value. ≈ marks a conversion by molar mass, not a printed value. Read-outs that look alike come from different tables or passages of the source.

Assays:
CHI Log D procedure = assay type: physicochemical; conditions: for CHI Log D: pH 7.4; for chromatographic logD: pH 7.4, CHI Log D
Solubility in PBS = assay type: physicochemical
How it was run: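 Steps: ultracentrifuge the peptide PBS solution, inject the supernatant on HPLC, inject a 50 μM peptide DMSO solution as reference, then calculate solubility as area ratio (PBS/DMSO) × 50 uM.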

[1] = target: T1, full-length beta-Catenin (Uniprot ID P35222) (Homo sapiens, UniProt P35222); test: Fluorescence polarization IC50 (beta-catenin / 5FAM-TCF4 10-53 competition); assay type: binding
T1 construct: 10 nM full-length beta-Catenin (Uniprot ID P35222)
T1 sequence (P35222 1-781): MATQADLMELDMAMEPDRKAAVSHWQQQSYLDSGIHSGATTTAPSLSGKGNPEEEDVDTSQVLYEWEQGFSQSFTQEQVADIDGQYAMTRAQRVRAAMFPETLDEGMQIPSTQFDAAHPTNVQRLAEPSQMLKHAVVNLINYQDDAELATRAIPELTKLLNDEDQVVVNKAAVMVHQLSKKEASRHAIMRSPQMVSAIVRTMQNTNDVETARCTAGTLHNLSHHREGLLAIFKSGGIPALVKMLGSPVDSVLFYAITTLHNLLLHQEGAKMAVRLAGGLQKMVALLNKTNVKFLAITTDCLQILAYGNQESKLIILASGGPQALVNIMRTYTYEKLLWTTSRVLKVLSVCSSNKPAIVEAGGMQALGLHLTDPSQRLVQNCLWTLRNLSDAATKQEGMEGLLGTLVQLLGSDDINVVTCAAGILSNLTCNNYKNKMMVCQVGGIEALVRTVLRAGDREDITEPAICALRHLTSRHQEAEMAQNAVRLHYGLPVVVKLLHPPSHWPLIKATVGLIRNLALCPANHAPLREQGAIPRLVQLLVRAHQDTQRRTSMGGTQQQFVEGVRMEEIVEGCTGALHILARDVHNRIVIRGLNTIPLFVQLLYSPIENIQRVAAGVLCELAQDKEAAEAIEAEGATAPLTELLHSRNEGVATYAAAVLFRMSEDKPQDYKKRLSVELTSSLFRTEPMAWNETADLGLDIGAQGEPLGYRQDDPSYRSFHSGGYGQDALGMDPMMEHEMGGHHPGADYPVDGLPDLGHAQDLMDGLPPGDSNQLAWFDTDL

CHI Log D (CHI Log D procedure)	Solubility (Solubility in PBS)	pIC50 ([1]; read-out: FP EC50)	pIC50 ([1]; read-out: beta-Catenin FP IC50)	chromatographic logD (CHI Log D procedure)	Solubility (Solubility in PBS; Solubility (uM))	Structure (SMILES)
	50 µM (≈ 95.9 µg/mL)		8.30	2.08		CC(=O)N1CCC[C@]12CC=CCCCC1(CCCC=CCCCOC(=O)N3CC[C@@](C(=O)N[C@@H](Cc4ccsc4)C(=O)N[C@@H](Cc4csc5ccccc45)C(=O)N[C@@H](CCC(N)=O)C(N)=O)(C3)NC(=O)[C@H](CC(N)=O)NC(=O)[C@H](Cc3ccccc3)NC(=O)[C@H](C)NC(=O)[C@H](C)NC(=O)[C@H](CC(=O)O)NC(=O)[C@H](CC(=O)O)NC1=O)NC(=O)[C@H](CCC(C)C)NC(=O)[C@H](CC(=O)O)NC2=O (stereo partly drawn) [I-787, Ac-PL3-Asp-hLeu-B5-Asp-Asp-Ala-Ala-Phe-Asn-PyrS2-3Thi-BztA-Gln-NH2]
			6.51	2.05	48 µM (≈ 93.3 µg/mL)	CC(=O)N1CCC[C@]12CC=CCCCC1(CCCC=CCCCOC(=O)N3CC[C@@](C(=O)N[C@@H](Cc4ccsc4)C(=O)N[C@@H](Cc4c[nH]c5ccc(Cl)cc45)C(=O)N[C@@H](Cc4c[nH]cn4)C(N)=O)(C3)NC(=O)[C@H](CC(N)=O)NC(=O)[C@H](Cc3ccccc3)NC(=O)[C@H](C)NC(=O)[C@H](C)NC(=O)[C@H](CC(=O)O)NC(=O)[C@H](CC(=O)O)NC1=O)NC(=O)[C@H](CC(C)(C)C)NC(=O)[C@H](CC(=O)O)NC2=O (stereo partly drawn) [I-791, Ac-PL3-Asp-Npg-B5-Asp-Asp-Ala-Ala-Phe-Asn-PyrS2-3Thi-5C1W-His-NH2]

More lines, now with the values behind:

Structure (SMILES)	CHI Log D (CHI Log D procedure)	Solubility (Solubility in PBS)	pIC50 ([1]; read-out: FP EC50)	pIC50 ([1]; read-out: beta-Catenin FP IC50)	chromatographic logD (CHI Log D procedure)	Solubility (Solubility in PBS; Solubility (uM))
CC(=O)N1CCC[C@]12CC=CCCCC1(CCCC=CCOC(=O)N(C)CCC[C@@](C)(C(=O)N[C@@H](Cc3ccsc3)C(=O)N[C@@H](Cc3csc4ccccc34)C(=O)N[C@@H](Cc3c[nH]cn3)C(N)=O)NC(=O)[C@H](CC(N)=O)NC(=O)[C@H](Cc3ccccc3)NC(=O)[C@H](C)NC(=O)[C@H](C)NC(=O)[C@H](CC(=O)O)NC(=O)[C@H](CC(=O)O)NC1=O)NC(=O)[C@H](CC(C)(C)C)NC(=O)[C@H](CC(=O)O)NC2=O (stereo partly drawn) [I-773, Ac-PL3-Asp-Npg-B5-Asp-Asp-Ala-Ala-Phe-Asn-SeN-3Thi-BztA-His-NH2]	1.76	47 µM (≈ 90.7 µg/mL)	6.78	6.78		
CC(=O)N1CCC[C@]12CC=CCCCC1(CCCC=CCOC(=O)N(C)CCC[C@@](C)(C(=O)N[C@@H](Cc3ccsc3)C(=O)N[C@@H](Cc3csc4ccccc34)C(=O)N[C@@H](Cc3c[nH]cn3)C(N)=O)NC(=O)[C@H](CC(N)=O)NC(=O)[C@H](Cc3ccccc3)NC(=O)[C@H](C)NC(=O)[C@H](C)NC(=O)[C@H](CC(=O)O)NC(=O)[C@H](CC(=O)O)NC1=O)NC(=O)[C@H](CC(C)(C)C)NC(=O)[C@H](CC(=O)O)NC2=O (stereo partly drawn) [I-774, Ac-PL3-Asp-Npg-B5-Asp-Asp-Ala-Ala-Phe-Asn-SeN-3Thi-BztA-His-NH2]	1.928	46 µM (≈ 88.7 µg/mL)	7.42	7.42		
CC(=O)N1CCC[C@]12CC=CCCCC1(CCCC=CCCCCOC(=O)N3CC[C@@](C(=O)N[C@@H](Cc4ccsc4)C(=O)N[C@@H](Cc4csc5ccccc45)C(=O)N[C@@H](Cc4c[nH]cn4)C(N)=O)(C3)NC(=O)[C@H](CC(N)=O)NC(=O)[C@H](Cc3ccccc3)NC(=O)[C@H](C)NC(=O)[C@H](C)NC(=O)[C@H](CC(=O)O)NC(=O)[C@H](CC(=O)O)NC1=O)NC(=O)[C@H](CC(C)(C)C)NC(=O)[C@H](CC(=O)O)NC2=O (stereo partly drawn) [I-776, Ac-PL3-Asp-Npg-B5-Asp-Asp-Ala-Ala-Phe-Asn-PyrS3-3Thi-BztA-His-NH2]	2.137	41 µM (≈ 79.6 µg/mL)		8.30		
CC(=O)N1CCC[C@]12CC=CCCCC1(CCCC=CCCCOC(=O)N3CC[C@@](C(=O)N[C@@H](Cc4cccs4)C(=O)N[C@@H](Cc4csc5ccccc45)C(=O)N[C@@H](Cc4c[nH]cn4)C(N)=O)(C3)NC(=O)[C@H](CC(N)=O)NC(=O)[C@H](Cc3ccccc3)NC(=O)[C@H](C)NC(=O)[C@H](C)NC(=O)[C@H](CC(=O)O)NC(=O)[C@H](CC(=O)O)NC1=O)NC(=O)[C@H](CC(C)(C)C)NC(=O)[C@H](CC(=O)O)NC2=O (stereo partly drawn) [I-779, Ac-PL3-Asp-Npg-B5-Asp-Asp-Ala-Ala-Phe-Asn-PyrS2-2Thi-BztA-His-NH2]				8.30	2.12	44 µM (≈ 84.8 µg/mL)
